Source: patent EP0585206B1, “Tryptamines for treatment of circadian rhythm disorders” (I.F.L.O. S.a.s. di Giorgio e Aldo Laguzzi, priority 1992, dated 1994)

What follows are compounds tested on N-acetyl-5-methoxytryptamine receptors (assay: biological activity by classical tests (agonist/antagonist character)). Conditions: not given.
Protocol: (§1) All the substances were evaluted for their relative affinity and were tested for biological activity by using classical tests.

SMILES	Activity
COc1ccc2[nH]c(C)c(CCNC(C)=O)c2c1 [Compound 4a]	Agonist
COc1ccc2[nH]c(C3CCCCC3)c(CCNC(C)=O)c2c1 [Compound 4c]	Partial antagonist
COc1ccc2[nH]c(-c3ccccc3)c(CCNC(C)=O)c2c1 [Compound 4d]	Antagonist
COc1ccc2[nH]c(C)c(CCNC(=O)C3CC3)c2c1 [Compound 4e]	Agonist
COc1ccc2[nH]c(-c3ccccc3)c(CCNC(=O)C3CC3)c2c1 [Compound 4g]	Partial antagonist
COc1ccc2[nH]c(Br)c(CCNC(=O)C3CC3)c2c1 [Compound 4h]	Agonsit
COc1ccc2[nH]c(I)c(CCNC(=O)C3CC3)c2c1 [Compound 4i]	Agonist
COc1ccc2[nH]c(Br)c(CCNC(C)=O)c2c1 [Compound 4j, N-acetyl-2-bromo-5-methoxy tryptamine]	Agonist
COc1ccc2[nH]c(I)c(CCNC(C)=O)c2c1 [Compound 4k]	Agonist
COc1cc2c(CCNC(C)=O)c(Br)[nH]c2cc1Br [Compound 4l]	Agonist
COc1ccc2[nH]cc(CCNC(C)=O)c2c1 [Melatonin, N-Acetyl-5-methoxytryptamine, reference compound]	Agonist

Each compound was assayed against N-acetyl-5-methoxytryptamine receptors (assay: relative affinity for the specific N-acetyl-5-methoxytryptamine receptors). Conditions: association constant; SE printed in a separate column.
Format: binding
Protocol: as §1

SMILES	Ka ± SE
COc1ccc2[nH]c(-c3ccccc3)c(CCNC(=O)C3CC3)c2c1 [Compound 4g]	4.1e+09 L/mol
